According to US4933456A, “Dipyridoxyl phosphate NMRI contrast agents” (Salutar, Inc., priority 1987, dated 1990):
Where two headings read alike, the source gives them in different places.

Tested on: selected body organs
Settings: 30 min
Protocol: Each of four rabbits was injected intravenously with one of the following amounts of the solution obtained in Example 7: 0.01 mmoles/kg, 0.05 mmoles/kg, 0.10 mmoles/kg and 0.20 mmoles/kg. The rabbits were sacrificed 30 min post injection, and the proton relaxation values of selected body organs were measured with NMR, in vitro at 10 MHz.

Cc1ncc(COP(=O)(O)O)c(CN(CCN(CC(=O)[O-])Cc2c(COP(=O)(O)O)cnc(C)c2O)CC(=O)[O-])c1O.[Mn+2] [Mn(DPDP), sodium-calcium salt of a manganese chelate complex of N,N,-bis-(pyridoxal-5-phosphate)ethylenediamine-N,N'-diacetic acid or N,N'-bis(3-hydroxy-2-methyl-5-phosphonomethyl-4-pyridylmethyl)ethylenediamine-N,N'-diacetic acid]
uptake by the heart through the dose range studied (0.05-0.20 mmol/kg, i.v.): continues to uptake | T1 (Blood, 0.01 mmol/kg i.v.): 844 ms | T1 (Blood, 0.05 mmol/kg i.v.): 613 ms | T1 (Blood, 0.10 mmol/kg i.v.): 506 ms | T1 (Blood, 0.20 mmol/kg i.v.): 411 ms | T1 (Brain, 0.01 mmol/kg i.v.): 554 ms | T2 (Brain, 0.01 mmol/kg i.v.): 76 ms | T1 (Brain, 0.05 mmol/kg i.v.): 496 ms | T2 (Brain, 0.05 mmol/kg i.v.): 82 ms | T1 (Brain, 0.10 mmol/kg i.v.): 590 ms | T2 (Brain, 0.10 mmol/kg i.v.): 90 ms | T1 (Brain, 0.20 mmol/kg i.v.): 352 ms | T2 (Brain, 0.20 mmol/kg i.v.): 66 ms | T1 (Fat, 0.05 mmol/kg i.v.): 200 ms | T2 (Fat, 0.05 mmol/kg i.v.): 139 ms | T1 (Fat, 0.10 mmol/kg i.v.): 183 ms | T2 (Fat, 0.10 mmol/kg i.v.): 115 ms | T1 (Fat, 0.20 mmol/kg i.v.): 192 ms | T1 (Heart, 0.05 mmol/kg i.v.): 353 ms | T2 (Heart, 0.05 mmol/kg i.v.): 54 ms | T1 (Heart, 0.10 mmol/kg i.v.): 300 ms | T2 (Heart, 0.10 mmol/kg i.v.): 51 ms | T1 (Heart, 0.20 mmol/kg i.v.): 205 ms | T2 (Heart, 0.20 mmol/kg i.v.): 47 ms | T1 (Large Int., 0.01 mmol/kg i.v.): 283 ms | T2 (Large Int., 0.01 mmol/kg i.v.): 64 ms | T1 (Large Int., 0.05 mmol/kg i.v.): 365 ms | T2 (Large Int., 0.05 mmol/kg i.v.): 83 ms | T1 (Large Int., 0.10 mmol/kg i.v.): 290 ms | T2 (Large Int., 0.10 mmol/kg i.v.): 57 ms | T1 (Large Int., 0.20 mmol/kg i.v.): 256 ms | T2 (Large Int., 0.20 mmol/kg i.v.): 74 ms | T1 (Liver, 0.01 mmol/kg i.v.): 176 ms | T2 (Liver, 0.01 mmol/kg i.v.): 39 ms | T1 (Liver, 0.05 mmol/kg i.v.): 76 ms | T2 (Liver, 0.05 mmol/kg i.v.): 31 ms | T1 (Liver, 0.10 mmol/kg i.v.): 65 ms | T2 (Liver, 0.10 mmol/kg i.v.): 23 ms | T1 (Liver, 0.20 mmol/kg i.v.): 68 ms | T2 (Liver, 0.20 mmol/kg i.v.): 25 ms | T1 (Lung, 0.05 mmol/kg i.v.): 575 ms | T2 (Lung, 0.05 mmol/kg i.v.): 113 ms | T1 (Lung, 0.10 mmol/kg i.v.): 435 ms | T2 (Lung, 0.10 mmol/kg i.v.): 61 ms | T1 (Lung, 0.20 mmol/kg i.v.): 376 ms | T2 (Lung, 0.20 mmol/kg i.v.): 63 ms | T1 (Renal Cort., 0.01 mmol/kg i.v.): 298 ms | T2 (Renal Cort., 0.01 mmol/kg i.v.): 65 ms | T1 (Renal Cort., 0.05 mmol/kg i.v.): 210 ms | T2 (Renal Cort., 0.05 mmol/kg i.v.): 57 ms | T1 (Renal Cort., 0.10 mmol/kg i.v.): 188 ms | T2 (Renal Cort., 0.10 mmol/kg i.v.): 55 ms | T1 (Renal Cort., 0.20 mmol/kg i.v.): 143 ms | T2 (Renal Cort., 0.20 mmol/kg i.v.): 53 ms | T1 (Renal Med., 0.01 mmol/kg i.v.): 502 ms | T2 (Renal Med., 0.01 mmol/kg i.v.): 99 ms | T1 (Renal Med., 0.05 mmol/kg i.v.): 223 ms | T2 (Renal Med., 0.05 mmol/kg i.v.): 57 ms | T1 (Renal Med., 0.10 mmol/kg i.v.): 209 ms | T2 (Renal Med., 0.10 mmol/kg i.v.): 48 ms | T1 (Renal Med., 0.20 mmol/kg i.v.): 127 ms | T2 (Renal Med., 0.20 mmol/kg i.v.): 60 ms | T1 (Skel. Musc., 0.05 mmol/kg i.v.): 494 ms | T2 (Skel. Musc., 0.05 mmol/kg i.v.): 47 ms | T1 (Skel. Musc., 0.10 mmol/kg i.v.): 425 ms | T2 (Skel. Musc., 0.10 mmol/kg i.v.): 31 ms | T1 (Skel. Musc., 0.20 mmol/kg i.v.): 232 ms | T2 (Skel. Musc., 0.20 mmol/kg i.v.): 31 ms | T1 (Small Int., 0.01 mmol/kg i.v.): 324 ms | T2 (Small Int., 0.01 mmol/kg i.v.): 72 ms | T1 (Small Int., 0.05 mmol/kg i.v.): 237 ms | T2 (Small Int., 0.05 mmol/kg i.v.): 52 ms | T1 (Small Int., 0.10 mmol/kg i.v.): 218 ms | T2 (Small Int., 0.10 mmol/kg i.v.): 46 ms | T1 (Small Int., 0.20 mmol/kg i.v.): 131 ms | T2 (Small Int., 0.20 mmol/kg i.v.): 46 ms | T1 (Stom., 0.05 mmol/kg i.v.): 245 ms | T2 (Stom., 0.05 mmol/kg i.v.): 41 ms | T1 (Stom., 0.10 mmol/kg i.v.): 242 ms | T2 (Stom., 0.10 mmol/kg i.v.): 52 ms | T1 (Stom., 0.20 mmol/kg i.v.): 271 ms | T2 (Stom., 0.20 mmol/kg i.v.): 53 ms | T1 (Urine, 0.01 mmol/kg i.v.): 821 ms | T1 (Urine, 0.05 mmol/kg i.v.): 150 ms | T2 (Urine, 0.05 mmol/kg i.v.): 136 ms | T1 (Urine, 0.10 mmol/kg i.v.): 90 ms | T2 (Urine, 0.10 mmol/kg i.v.): 75 ms | dose saturating the liver and kidneys (rabbit, i.v.): 0.10 mmol/kg | uptake by the brain (rabbit, i.v.): observed at higher doses | uptake in the heart, liver and kidneys (rabbit, i.v.): rapid uptake
